In US20190125735A1, “INHIBITION OF P38 MAPK FOR THE TREATMENT OF CANCER” (Board of Regents, The University of Texas System, priority 2015, published 2019):

Experiments:
MCF10A cells = assay: TGFβ1-induced EMT in MCF10A cells, immunoblotting; format: cell-based, human; settings: TGFβ1-treated MCF10A, concomitant SB203580, 3 days
Experimental: (§1) To ascertain whether inhibiting p38 impedes the initiation of EMT, two dynamic models of EMT induction were utilized. First, MCF10A immortalized human mammary epithelial cells were treated with TGFβ1 which elicits EMT. […] Second, an inducible EMT system was used wherein a fusion protein, comprising the EMT-inducing transcription factors Snail or Twist and the estrogen-binding domain of the estrogen receptor (ER), is stably expressed in epithelial HMLE cells (HMLE-Snail-ER, HMLE-Twist-ER). Addition of the ER-ligand tamoxifen (4-OHT) promotes nuclear translocation of the Snail-ER and Twist-ER proteins and elicits EMT. […] Similarly, p38 shRNA abolished the capacity of HMLE-Twist-ER cells to undergo EMT (FIG. 4E, compare lanes 4 to 8) and to form spheres (FIG. 16F) in response to 4-OHT treatment.
(§2) Immortalized human mammary epithelial (HMLE) cells expressing empty vector (pWZL), Snail, Twist, Goosecoid (GSC), or an activated form of TGFβ1, V12H-Ras-transformed HMLE (HMLER) and HMLER-FOXC2 cells were maintained as previously described (Elenbaas et al., 2001) For 4-hydroxy-tamoxifen (4-OHT) treatment, HMLE-Snail-ER or HMLE-Twist-ER cells were exposed to 20 nM 4-OHT for the indicated number of days. MCF7, MDA-MB-231 and SUM159 human breast cancer cells and the 4T1 mouse mammary carcinoma cells were cultured as described. […]

HMLE-Snail-ER cells = assay: 4-OHT inducible EMT in HMLE-Snail-ER cells, immunoblotting; format: cell-based, human; settings: HMLE-Snail-ER concurrently exposed to 4-OHT and SB203580
Experimental: as §1, §2

[1] = test system: HMLE-Snail-ER and HMLE-Twist-ER cells; assay: Sphere formation of 4-OHT-treated HMLE-Snail-ER and HMLE-Twist-ER cells; format: cell-based, human; settings: 4-OHT-treated cells, SB203580 exposure
Experimental: (§3) FIGS. 15A-15L: p38 inhibition compromises the acquisition and maintenance of EMT and stem cell properties in vitro. […] Cells were harvested and the corresponding lysates were analyzed by immunoblotting for FOXC2, E-cadherin and mesenchymal markers. β-actin was used as a loading control. […] Cells were harvested at the indicated timepoints and the corresponding lysates were analyzed by immunoblotting for FOXC2, E-cadherin and mesenchymal markers. β-actin was used as a loading control. […] One thousand cells were seeded per well in ultra-low attachment plates and cultured for 7-10 days. Spheres with a diameter greater than 75 μm were counted. The data are reported as the number of spheres formed/1000 seeded cells±SEM. […] Data are presented as mean±SEM. […] The corresponding lysates were analyzed by immunoblotting for FOXC2, E-cadherin and mesenchymal markers. β-actin was used as a loading control. (F) The sphere-forming efficiency of 4-OHT-treated HMLE-Twist-ER cells, transduced with control shRNA (shControl) or p38 shRNA (shp38), was determined. […] (H) The sphere-forming efficiency of the indicated cells was determined in the presence of vehicle or SB203580. […] (J) The relative wound closure by the indicated cells, treated with vehicle or SB203580, was measured by image analysis and represented in a graphical format. […] Degradation of FITC-gelatin was quantified by image analysis. n=150 cells/sample. […]

[2] = test system: HMLE-Snail and HMLE-Twist cells; assay: Invadopodia formation, degradation of FITC-conjugated gelatin; format: cell-based, human; settings: within 16 h, vs vehicle-treated cells
Experimental: as §3

DU145 cells [3] = assay: Morphology and marker expression (qRTPCR, immunoblotting, IF) in DU145 cells; format: cell-based, human
Experimental: Cell lines: Authenticated LNCaP, DU145, and PC3 cells were procured from ATCC and cultured in RPMI with 10% fetal bovine serum (FBS) with penicillin/streptomycin. Cells overexpressing EMT transcription factors and shRNA were also cultured in the same media. HEK293T cells were cultured in DMEM with 10% FBS and penicillin/streptomycin. All cell lines used for this study were recently confirmed negative for mycoplasma contamination.
(§4) Immunoblotting, Immunofluorescence, RTPCR, wound healing- and tumorsphere assays were performed as previously described (Sarkar et al., 2015). Cell viability (MTS) was assessed using the CellTiter96 Aqueous One-Solution Cell Proliferation Assay kit (Promega).

DU145 cells [4] = assay: MTS cell survival assay, DU145 cells; format: cell-based, human
Experimental: as §4

DU145 cells [5] = assay: DU145 subcutaneous tumors in NOD/SCID mice; format: in vivo; settings: subcutaneous dosing 5 days/week; SB203580 0.2 μmols per mouse, Enzalutamide 10 mg/kg; vs vehicle
Experimental: To investigate the effect of inhibition of FOXC2-dependent EMT/CSC attributes on tumor formation in vivo, NOD/SCID mice were subcutaneously injected with DU145 cells and began treatment in vivo, after formation of palpable tumors.
Immediately after sacrificing the mice, ˜100 μl blood was isolated via venipuncture in EDTA-treated collection tubes and stored on ice. Within 30 minutes, the blood was spun down at 1200 rpm for 5 minutes, and the pellet resuspended in 1 ml ACK-lysing buffer (Life Tech) and further incubated for 3-5 minutes. Cells were washed once with PBS, resuspended in RPMI with 10% FBS and pen/strep, and cultured on 10 cm tissue culture dishes. RFP-positive colonies (originating from the labeled DU145 cells injected into mice) were counted after 3-4 days in culture and quantified.
˜4 week-old male NOD.CB17-Prkdcscid/J mice were purchased from the Jackson Laboratory (Maine, USA). […] Once palpable tumors were discernable, tumor-bearing mice were randomly segregated into 4 groups, and drug treatment was initiated every 24 hours for 5 days/week. […] Investigators were blinded to the group allocation while assessing experimental outcomes. At the end of the treatment period, tumors were excised, average diameter calculated using calipers, and tumor weight noted. […]

mouse BCR-ABL+ ALL cells = assay: BCR-ABL+ ALL model in NOD-SCID mice; format: in vivo; settings: dasatinib 10 mg/kg oral, dexamethasone 1 mg/kg oral, SB203580 40 mg/kg i.p.; treatment from day 5
Excerpt: Leukemia progression was monitored by both bioluminescence imaging and quantifying mCherry+ ALL cells in peripheral blood samples by flow cytometry. […] Non-obese diabetic severe combined immunodeficient (NOD-SCID) mice were housed under high-barrier conditions in the Department of Veterinary Medicine and Surgery at MD Anderson. To generate the in vivo leukemia model, six to eight weeks old NOD-SCID mice were intravenously injected with luciferase- and mCherry-expressing BCR-ABL+ mouse leukemic cells (2×10^6 cells); engraftment of the transplanted cells was confirmed by bioluminescence imaging. For bioluminescence imaging, each mouse was intraperitoneally injected with D-Luciferin (150 mg/kg) and imaged using the IVIS Lumina imaging system (PerkinElmer).
Leukemia treatment started 5 days after transplantation. […] Treatment was continued until mice were succumbed to disease.
Bone marrow samples from the mice were harvested 4 days after initiating the drug treatment. […] Peripheral blood specimens were directly harvested from mice tail tips into PBS supplemented with ethylenediaminetetraacetic acid (2 mM). Red blood cells were subjected to lysis and were neutralized with 20% fetal bovine serum supplemented with alpha minimum essential medium. mCherry+ leukemic cells in the peripheral blood were detected by flow cytometry analysis after red blood cells were lysed.

BCR-ABL+ mouse ALL cells = settings: MSC co-culture
Experimental: To measure cell proliferation, co-cultures of MSCs and luciferase-labeled leukemic cells were mixed with D-Luciferin (Biosynth, Itasca, Ill.) to a final concentration of 0.5 mg/mL. Samples were incubated at room temperature for 1 minute and were imaged with the IVIS Lumina imaging system (PerkinElmer, Waltham, Mass.).

C[S+]([O-])c1ccc(-c2nc(-c3ccc(F)cc3)c(-c3ccncc3)[nH]2)cc1 (centres unmarked) [SB203580, 4-(4-Fluorophenyl)-2-(4-methylsulfinylphenyl)-5-(4-pyridyl) 1H-imidazole]
FOXC2, mesenchymal and epithelial markers (MCF10A cells): suppresses the upregulation of FOXC2 and mesenchymal markers (fibronectin, vimentin) and prevents downregulation of the epithelial marker E-cadherin
EMT and FOXC2 upregulation (HMLE-Snail-ER cells): failed to undergo EMT or upregulate FOXC2
Sphere-forming potential [1]: failed to acquire sphere-forming potential
Degradation of underlying extracellular matrix (FITC-gelatin) [2]: failed to do so to the same degree
AR and PSA expression (DU145 cells [3]; DU145, 5 μM, 7 days): restoration of AR and PSA expression
Expression of Bmi1 and Sox2 (DU145 cells [3]; DU145, 5 μM, 7 days): significant reduction
FOXC2 expression (DU145 cells [3]; DU145, 5 μM, 7 days): dramatic loss in FOXC2 expression
Morphology / phenotype (DU145 cells [3]; DU145, 5 μM, 7 days): acquisition of an epithelial phenotype
Expression of AR, PSA and E-cadherin over time (qRTPCR) (DU145 cells [3]; DU145, days 0-7 after treatment): consistently increased right after 48 hours, but reached highest levels at day 7
Sensitivity of cells to Docetaxel (cell survival) (DU145 cells [4]; DU145, SB203580 pre-treatment then co-treatment with SB203580 and Docetaxel): significantly resensitized
Sensitivity of cells to Enzalutamide (cell survival) (DU145 cells [4]; DU145, SB203580 pre-treatment then co-treatment with SB203580 and Enzalutamide): significantly resensitized
Tumor size (volume and weight) (DU145 cells [5]): no appreciable change in tumor size
Leukemia progression and survival (therapeutic efficacy) (mouse BCR-ABL+ ALL cells): did not slow leukemia progression or prolong survival
Proliferation of leukemic cells (BCR-ABL+ mouse ALL cells): did not affect proliferation or apoptosis of leukemic cells
